Test results published in article PMC12090182, “Repurposing of the RIPK1-Selective Benzo[1,4]oxazepin-4-one Scaffold for the Development of a Type III LIMK1/2 Inhibitor” (ACS Chemical Biology, 2025).

Tests used:
Format in all cases: cell-based
CDK2 = CDK2 (Homo sapiens, UniProt P24941); settings: HEK-293T; 1 μM inhibitor, HEK293T cells
Outline: (§1)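 Live-cell NanoBRET: HEK293T, 20 h expression, Tracer K10 (kit-recommended conc.), test compound 1 μM single point; luminescence 450/610 nm; % occupancy per kinase.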

CDK15 = CDK15 (Homo sapiens, UniProt Q96Q40); settings: HEK-293T; 1 μM inhibitor, HEK293T cells
Outline: as §1

TEC = TEC (Homo sapiens, UniProt P42680); settings: HEK-293T; 1 μM inhibitor, HEK293T cells
Outline: as §1

ULK2 = ULK2 (Homo sapiens, UniProt Q8IYT8); settings: HEK-293T; 1 μM inhibitor, HEK293T cells
Outline: as §1

STK38L = STK38L (Homo sapiens, UniProt Q9Y2H1); settings: HEK-293T; 1 μM inhibitor, HEK293T cells
Outline: as §1

TXK = TXK (Homo sapiens, UniProt P42681); settings: HEK-293T; 1 μM inhibitor, HEK293T cells
Outline: as §1

WEE2 = WEE2 (Homo sapiens, UniProt P0C1S8); settings: HEK-293T; 1 μM inhibitor, HEK293T cells
Outline: as §1

MAST3 = MAST3 (Homo sapiens, UniProt O60307); settings: HEK-293T; 1 μM inhibitor, HEK293T cells
Outline: as §1

MAPK9 = MAPK9 (Homo sapiens, UniProt P45984); settings: HEK-293T; 1 μM inhibitor, HEK293T cells
Outline: as §1

IKBKE = IKBKE (Homo sapiens, UniProt Q14164); settings: HEK-293T; 1 μM inhibitor, HEK293T cells
Outline: as §1

STK4 = STK4 (Homo sapiens, UniProt Q13043); settings: HEK-293T; 1 μM inhibitor, HEK293T cells
Outline: as §1

NEK1 = NEK1 (Homo sapiens, UniProt Q96PY6); settings: HEK-293T; 1 μM inhibitor, HEK293T cells
Outline: as §1

CDK14 = CDK14 (Homo sapiens, UniProt O94921); settings: HEK-293T; 1 μM inhibitor, HEK293T cells
Outline: as §1

TEK = TEK (Homo sapiens, UniProt Q02763); settings: HEK-293T; 1 μM inhibitor, HEK293T cells
Outline: as §1

AKT2 = AKT2 (Homo sapiens, UniProt P31751); settings: HEK-293T; 1 μM inhibitor, HEK293T cells
Outline: as §1

STK11 = STK11 (Homo sapiens, UniProt Q15831); settings: HEK-293T; 1 μM inhibitor, HEK293T cells
Outline: as §1

MAP3K3 = MAP3K3 (Homo sapiens, UniProt Q99759); settings: HEK-293T; 1 μM inhibitor, HEK293T cells
Outline: as §1

BRSK1 = BRSK1 (Homo sapiens, UniProt Q8TDC3); settings: HEK-293T; 1 μM inhibitor, HEK293T cells
Outline: as §1

MAP3K12 = MAP3K12 (Homo sapiens, UniProt Q12852); settings: HEK-293T; 1 μM inhibitor, HEK293T cells
Outline: as §1

AURKB = AURKB (Homo sapiens, UniProt Q96GD4); settings: HEK-293T; 1 μM inhibitor, HEK293T cells
Outline: as §1

DCLK3 = DCLK3 (Homo sapiens, UniProt Q9C098); settings: HEK-293T; 1 μM inhibitor, HEK293T cells
Outline: as §1

STK10 = STK10 (Homo sapiens, UniProt O94804); settings: HEK-293T; 1 μM inhibitor, HEK293T cells
Outline: as §1

MYLK4 = MYLK4 (Homo sapiens, UniProt Q86YV6); settings: HEK-293T; 1 μM inhibitor, HEK293T cells
Outline: as §1

MARK2 = MARK2 (Homo sapiens, UniProt Q7KZI7); settings: HEK-293T; 1 μM inhibitor, HEK293T cells
Outline: as §1

TLK1 = TLK1 (Homo sapiens, UniProt Q9UKI8); settings: HEK-293T; 1 μM inhibitor, HEK293T cells
Outline: as §1

RPS6KA1 = RPS6KA1 (Homo sapiens, UniProt Q15418); settings: HEK-293T; 1 μM inhibitor, HEK293T cells
Outline: as §1

PTK2 = PTK2 (Homo sapiens, UniProt Q05397); settings: 1 μM inhibitor, HEK293T cells
Outline: as §1

NEK5 = NEK5 (Homo sapiens, UniProt Q6P3R8); settings: HEK-293T; 1 μM inhibitor, HEK293T cells
Outline: as §1

BMX = BMX (Homo sapiens, UniProt P51813); settings: HEK-293T; 1 μM inhibitor, HEK293T cells
Outline: as §1

SIK1 = SIK1 (Homo sapiens, UniProt P57059); settings: HEK-293T; 1 μM inhibitor, HEK293T cells
Outline: as §1

RIOK2 = RIOK2 (Homo sapiens, UniProt Q9BVS4); settings: HEK-293T; 1 μM inhibitor, HEK293T cells
Outline: as §1

SNRK = SNRK (Homo sapiens, UniProt Q9NRH2); settings: HEK-293T; 1 μM inhibitor, HEK293T cells
Outline: as §1

PTK6 = PTK6 (Homo sapiens, UniProt Q13882); settings: HEK-293T; 1 μM inhibitor, HEK293T cells
Outline: as §1

PHKG2 = PHKG2 (Homo sapiens, UniProt P15735); settings: HEK-293T; 1 μM inhibitor, HEK293T cells
Outline: as §1

RPS6KA4 = RPS6KA4 (Homo sapiens, UniProt O75676); settings: HEK-293T; 1 μM inhibitor, HEK293T cells
Outline: as §1

NEK3 = NEK3 (Homo sapiens, UniProt P51956); settings: HEK-293T; 1 μM inhibitor, HEK293T cells
Outline: as §1

TYRO3 = TYRO3 (Homo sapiens, UniProt Q06418); settings: HEK-293T; 1 μM inhibitor, HEK293T cells
Outline: as §1

Sequence of STK10 (O94804 whole entry): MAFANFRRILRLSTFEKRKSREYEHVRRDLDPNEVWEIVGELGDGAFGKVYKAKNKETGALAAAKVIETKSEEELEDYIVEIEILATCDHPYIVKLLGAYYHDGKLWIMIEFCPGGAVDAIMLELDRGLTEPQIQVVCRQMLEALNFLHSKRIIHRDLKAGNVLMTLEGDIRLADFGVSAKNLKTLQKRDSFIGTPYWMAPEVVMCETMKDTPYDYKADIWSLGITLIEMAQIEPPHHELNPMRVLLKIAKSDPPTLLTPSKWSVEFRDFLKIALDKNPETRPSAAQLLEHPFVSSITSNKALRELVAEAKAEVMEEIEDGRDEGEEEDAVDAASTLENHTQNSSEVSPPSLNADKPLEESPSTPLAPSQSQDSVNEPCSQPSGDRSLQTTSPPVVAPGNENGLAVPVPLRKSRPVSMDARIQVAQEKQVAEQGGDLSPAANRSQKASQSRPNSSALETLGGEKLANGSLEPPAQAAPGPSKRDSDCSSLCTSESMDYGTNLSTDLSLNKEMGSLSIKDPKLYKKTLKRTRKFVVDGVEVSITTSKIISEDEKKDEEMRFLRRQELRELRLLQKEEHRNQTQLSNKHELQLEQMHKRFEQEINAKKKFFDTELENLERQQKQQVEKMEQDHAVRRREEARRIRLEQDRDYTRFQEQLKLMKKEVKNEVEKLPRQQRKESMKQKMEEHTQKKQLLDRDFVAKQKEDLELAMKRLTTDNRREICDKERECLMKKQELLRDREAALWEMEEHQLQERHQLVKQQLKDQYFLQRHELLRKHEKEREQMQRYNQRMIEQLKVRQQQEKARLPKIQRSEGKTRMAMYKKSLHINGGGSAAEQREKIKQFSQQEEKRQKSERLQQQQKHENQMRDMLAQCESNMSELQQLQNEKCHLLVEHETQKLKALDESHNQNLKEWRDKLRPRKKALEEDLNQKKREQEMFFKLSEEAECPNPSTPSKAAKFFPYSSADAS
Sequence of SIK1 (P57059 whole entry): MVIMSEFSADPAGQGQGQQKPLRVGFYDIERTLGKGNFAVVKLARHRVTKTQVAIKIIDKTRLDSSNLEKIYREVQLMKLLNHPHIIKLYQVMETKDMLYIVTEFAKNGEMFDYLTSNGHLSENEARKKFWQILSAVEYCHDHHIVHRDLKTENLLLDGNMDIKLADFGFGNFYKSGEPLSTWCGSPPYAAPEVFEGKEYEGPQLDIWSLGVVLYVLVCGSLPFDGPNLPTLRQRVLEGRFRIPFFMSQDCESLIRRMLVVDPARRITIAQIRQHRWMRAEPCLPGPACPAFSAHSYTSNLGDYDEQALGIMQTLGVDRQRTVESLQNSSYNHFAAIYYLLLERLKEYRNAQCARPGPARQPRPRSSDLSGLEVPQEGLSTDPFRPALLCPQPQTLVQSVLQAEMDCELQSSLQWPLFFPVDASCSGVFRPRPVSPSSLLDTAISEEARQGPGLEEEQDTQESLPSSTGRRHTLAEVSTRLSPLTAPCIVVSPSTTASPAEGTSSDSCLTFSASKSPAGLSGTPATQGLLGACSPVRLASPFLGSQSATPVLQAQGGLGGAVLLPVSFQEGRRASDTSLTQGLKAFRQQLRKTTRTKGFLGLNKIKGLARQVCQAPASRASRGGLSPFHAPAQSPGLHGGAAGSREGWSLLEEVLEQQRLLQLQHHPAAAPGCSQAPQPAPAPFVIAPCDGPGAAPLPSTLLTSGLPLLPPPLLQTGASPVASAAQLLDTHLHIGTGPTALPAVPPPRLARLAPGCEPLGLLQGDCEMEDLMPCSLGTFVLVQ
Sequence of SNRK (Q9NRH2 whole entry): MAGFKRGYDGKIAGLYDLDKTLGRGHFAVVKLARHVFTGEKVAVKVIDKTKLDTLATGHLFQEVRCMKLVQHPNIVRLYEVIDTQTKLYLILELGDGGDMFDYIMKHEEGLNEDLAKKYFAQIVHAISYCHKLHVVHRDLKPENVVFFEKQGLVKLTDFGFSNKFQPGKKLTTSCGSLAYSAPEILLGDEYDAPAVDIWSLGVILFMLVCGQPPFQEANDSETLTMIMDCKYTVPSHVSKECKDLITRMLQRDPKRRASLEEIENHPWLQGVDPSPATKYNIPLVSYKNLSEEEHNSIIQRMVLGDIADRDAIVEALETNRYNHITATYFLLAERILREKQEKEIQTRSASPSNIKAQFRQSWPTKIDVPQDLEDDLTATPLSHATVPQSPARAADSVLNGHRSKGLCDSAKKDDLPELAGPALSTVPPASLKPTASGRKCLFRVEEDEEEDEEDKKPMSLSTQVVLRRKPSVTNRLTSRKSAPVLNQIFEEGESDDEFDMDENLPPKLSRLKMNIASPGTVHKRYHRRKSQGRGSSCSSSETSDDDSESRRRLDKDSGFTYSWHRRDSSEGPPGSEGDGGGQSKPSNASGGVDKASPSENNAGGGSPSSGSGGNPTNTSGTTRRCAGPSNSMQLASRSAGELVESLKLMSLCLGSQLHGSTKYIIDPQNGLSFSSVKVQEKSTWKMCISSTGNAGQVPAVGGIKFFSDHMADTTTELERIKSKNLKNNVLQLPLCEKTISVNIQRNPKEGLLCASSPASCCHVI
Sequence of MAPK9 (P45984 whole entry): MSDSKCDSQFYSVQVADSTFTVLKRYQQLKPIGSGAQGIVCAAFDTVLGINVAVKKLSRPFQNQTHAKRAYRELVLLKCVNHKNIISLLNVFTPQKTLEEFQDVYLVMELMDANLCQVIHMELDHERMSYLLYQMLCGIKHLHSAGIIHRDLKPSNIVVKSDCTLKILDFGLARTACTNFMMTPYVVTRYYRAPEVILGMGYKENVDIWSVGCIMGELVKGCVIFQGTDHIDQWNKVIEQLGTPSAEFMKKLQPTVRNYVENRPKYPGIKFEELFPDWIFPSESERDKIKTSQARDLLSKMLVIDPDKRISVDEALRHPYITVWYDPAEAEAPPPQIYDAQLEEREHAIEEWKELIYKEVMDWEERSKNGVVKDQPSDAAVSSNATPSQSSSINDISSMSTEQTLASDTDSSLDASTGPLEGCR
Sequence of BRSK1 (Q8TDC3 whole entry): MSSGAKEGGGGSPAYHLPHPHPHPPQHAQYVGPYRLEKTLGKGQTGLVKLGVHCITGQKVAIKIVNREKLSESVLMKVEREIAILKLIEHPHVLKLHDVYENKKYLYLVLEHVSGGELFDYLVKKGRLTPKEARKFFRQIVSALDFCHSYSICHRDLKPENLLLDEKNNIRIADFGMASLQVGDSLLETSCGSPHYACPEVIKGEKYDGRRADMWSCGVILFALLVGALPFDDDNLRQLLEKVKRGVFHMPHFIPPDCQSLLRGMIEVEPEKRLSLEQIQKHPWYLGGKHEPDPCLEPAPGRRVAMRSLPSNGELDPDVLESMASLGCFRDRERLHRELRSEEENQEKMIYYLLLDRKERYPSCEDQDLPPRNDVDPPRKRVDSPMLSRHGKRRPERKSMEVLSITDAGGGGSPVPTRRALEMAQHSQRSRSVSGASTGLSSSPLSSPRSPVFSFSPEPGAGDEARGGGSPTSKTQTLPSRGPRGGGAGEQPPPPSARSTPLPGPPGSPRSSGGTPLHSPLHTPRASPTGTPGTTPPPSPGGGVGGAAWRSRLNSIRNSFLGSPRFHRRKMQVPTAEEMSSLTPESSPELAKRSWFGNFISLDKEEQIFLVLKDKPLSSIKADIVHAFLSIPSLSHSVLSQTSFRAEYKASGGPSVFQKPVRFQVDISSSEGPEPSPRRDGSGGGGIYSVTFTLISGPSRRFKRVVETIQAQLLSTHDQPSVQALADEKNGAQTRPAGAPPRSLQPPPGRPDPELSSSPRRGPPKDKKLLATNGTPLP
Sequence of PTK2 (Q05397 whole entry): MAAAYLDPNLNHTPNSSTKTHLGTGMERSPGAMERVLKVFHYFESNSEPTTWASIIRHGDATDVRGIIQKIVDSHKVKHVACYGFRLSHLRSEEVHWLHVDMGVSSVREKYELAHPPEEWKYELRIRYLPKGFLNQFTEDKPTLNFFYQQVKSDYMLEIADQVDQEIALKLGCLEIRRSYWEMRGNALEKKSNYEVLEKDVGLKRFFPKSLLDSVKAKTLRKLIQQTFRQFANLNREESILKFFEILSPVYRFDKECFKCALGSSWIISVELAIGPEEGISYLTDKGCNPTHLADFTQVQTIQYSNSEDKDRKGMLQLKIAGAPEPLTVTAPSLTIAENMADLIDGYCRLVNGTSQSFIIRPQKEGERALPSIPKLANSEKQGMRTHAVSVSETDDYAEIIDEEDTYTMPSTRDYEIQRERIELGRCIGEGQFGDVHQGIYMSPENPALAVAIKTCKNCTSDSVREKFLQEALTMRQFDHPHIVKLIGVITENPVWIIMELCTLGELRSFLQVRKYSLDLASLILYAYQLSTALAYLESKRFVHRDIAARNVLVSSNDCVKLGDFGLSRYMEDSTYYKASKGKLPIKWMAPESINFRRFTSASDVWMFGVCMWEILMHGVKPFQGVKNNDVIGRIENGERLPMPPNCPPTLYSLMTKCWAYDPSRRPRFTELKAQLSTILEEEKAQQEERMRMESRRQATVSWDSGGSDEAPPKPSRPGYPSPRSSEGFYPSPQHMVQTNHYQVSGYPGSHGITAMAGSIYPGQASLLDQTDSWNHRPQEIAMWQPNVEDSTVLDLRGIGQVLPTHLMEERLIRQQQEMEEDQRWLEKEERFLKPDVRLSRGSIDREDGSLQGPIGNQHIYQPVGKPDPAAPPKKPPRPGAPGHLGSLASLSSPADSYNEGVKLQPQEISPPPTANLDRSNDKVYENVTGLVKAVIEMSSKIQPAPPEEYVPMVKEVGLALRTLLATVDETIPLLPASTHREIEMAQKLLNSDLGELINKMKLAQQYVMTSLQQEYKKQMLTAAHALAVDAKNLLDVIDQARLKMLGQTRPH

Work on `CN1C(=O)[C@@H](N2CCc3c(nn(Cc4ccccc4)c3C(N)=O)C2=O)COc2cc(Cl)ccc21` [Compound 10, (S)-2-benzyl-6-(8-chloro-5-methyl-4-oxo-2,3,4,5-tetrahydrobenzo[b][1,4]oxazepin-3-yl)-7-oxo-4,5,6,7-tetrahydro-2H-pyrazolo[3,4-c]pyridine-3-carboxamide] yielded a receptor occupancy at 1 µM (CDK2) of 6.33%, a receptor occupancy at 1 µM (CDK15) of -12.8% and a receptor occupancy at 1 µM (TEC) of -0.614%. For the same compound, the receptor occupancy at 1 µM (ULK2) was 2.12%, the receptor occupancy at 1 µM (STK38L) was 7.45% and the receptor occupancy at 1 µM (TXK) was 4.81%. For the same compound, the receptor occupancy at 1 µM (WEE2) was -0.12%, the receptor occupancy at 1 µM (MAST3) was 3.64% and the receptor occupancy at 1 µM (MAPK9) was -2.07%. It also gave a receptor occupancy at 1 µM (IKBKE) of 6.88%, a receptor occupancy at 1 µM (STK4) of -6.3% and a receptor occupancy at 1 µM (NEK1) of 8.46%. It also gave a receptor occupancy at 1 µM (CDK14) of 4.07%, a receptor occupancy at 1 µM (TEK) of 9.13% and a receptor occupancy at 1 µM (AKT2) of -1.95%. The receptor occupancy at 1 µM (STK11) was -4.45%, the receptor occupancy at 1 µM (MAP3K3) was 5.83% and the receptor occupancy at 1 µM (BRSK1) was 3.37%. It also gave a receptor occupancy at 1 µM (MAP3K12) of -2.26%, a receptor occupancy at 1 µM (AURKB) of -2.1% and a receptor occupancy at 1 µM (DCLK3) of 2.41%. For the same compound, the receptor occupancy at 1 µM (STK10) was -3.32%, the receptor occupancy at 1 µM (MYLK4) was -2.91% and the receptor occupancy at 1 µM (MARK2) was 16.3%. The receptor occupancy at 1 µM (TLK1) was 26.6%, the receptor occupancy at 1 µM (RPS6KA1) was 5.2% and the receptor occupancy at 1 µM (PTK2) was -12.2%. The receptor occupancy at 1 µM (NEK5) was -1.37%, the receptor occupancy at 1 µM (BMX) was -3.33% and the receptor occupancy at 1 µM (SIK1) was -3.59%. For the same compound, the receptor occupancy at 1 µM (RIOK2) was -2.88%, the receptor occupancy at 1 µM (SNRK) was 7.74% and the receptor occupancy at 1 µM (PTK6) was 2.55%. It also gave a receptor occupancy at 1 µM (PHKG2) of -1.01%, a receptor occupancy at 1 µM (RPS6KA4) of 7.5% and a receptor occupancy at 1 µM (NEK3) of -12%. The receptor occupancy at 1 µM (TYRO3) was -9.33%.
